The supplement of paper PMC10307832

Columns and labels:
Assay in all cases: relative viability (nuclei count vs DMSO), 5 days (fraction); higher = more cells survive
MK-2206 + Tozasertib = compound: NC1(c2ccc(-c3nc4ccn5c(=O)[nH]nc5c4cc3-c3ccccc3)cc2)CCC1 [MK-2206] + Cc1cc(Nc2cc(N3CCN(C)CC3)nc(Sc3ccc(NC(=O)C4CC4)cc3)n2)n[nH]1 [Tozasertib] (partner 0.1 µM)
In short: (§1)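 Cells from lung cancer lines were seeded into 1536-well plates and, one day later, dosed by pin tool. Treatments were either a single drug or a fixed dose of an anchor drug with five library-drug doses (not always all listed) in √10 steps. After 5 days, nuclei were stained in a one-step fixation (final 0.05% Triton X-100, 1% formaldehyde, 1 ug/ml Hoechst) and counted on 4× images, and relative viability is the treated-to-vehicle nuclei ratio, as the median of duplicate plates.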

MK-2206 + Pictilisib = compound: NC1(c2ccc(-c3nc4ccn5c(=O)[nH]nc5c4cc3-c3ccccc3)cc2)CCC1 [MK-2206] + CS(=O)(=O)N1CCN(Cc2cc3nc(-c4cccc5[nH]ncc45)nc(N4CCOCC4)c3s2)CC1 [Pictilisib] (partner 1 µM)
In short: as §1

Pictilisib + Lapatinib = compound: CS(=O)(=O)N1CCN(Cc2cc3nc(-c4cccc5[nH]ncc45)nc(N4CCOCC4)c3s2)CC1 [Pictilisib] + CS(=O)(=O)CCNCc1ccc(-c2ccc3ncnc(Nc4ccc(OCc5cccc(F)c5)c(Cl)c4)c3c2)o1 [Lapatinib] (partner 2 µM)
In short: as §1

Pictilisib + Olaparib = compound: CS(=O)(=O)N1CCN(Cc2cc3nc(-c4cccc5[nH]ncc45)nc(N4CCOCC4)c3s2)CC1 [Pictilisib] + O=C(c1cc(Cc2n[nH]c(=O)c3ccccc23)ccc1F)N1CCN(C(=O)C2CC2)CC1 [Olaparib] (partner 8 µM)
In short: as §1

Pictilisib + Tozasertib = compound: CS(=O)(=O)N1CCN(Cc2cc3nc(-c4cccc5[nH]ncc45)nc(N4CCOCC4)c3s2)CC1 [Pictilisib] + Cc1cc(Nc2cc(N3CCN(C)CC3)nc(Sc3ccc(NC(=O)C4CC4)cc3)n2)n[nH]1 [Tozasertib] (partner 0.1 µM)
In short: as §1

Row | Cell Line | relative viability (MK-2206 + Tozasertib; first compound 0.01 µM) | relative viability (MK-2206 + Tozasertib; first compound 0.03162 µM) | relative viability (MK-2206 + Tozasertib; first compound 0.3162 µM) | relative viability (MK-2206 + Tozasertib; first compound 1 µM) | relative viability (MK-2206 + Pictilisib; first compound 0.01 µM) | relative viability (MK-2206 + Pictilisib; first compound 0.03162 µM) | relative viability (MK-2206 + Pictilisib; first compound 0.3162 µM) | relative viability (MK-2206 + Pictilisib; first compound 1 µM) | relative viability (Pictilisib + Lapatinib; first compound 0.02 µM) | relative viability (Pictilisib + Lapatinib; first compound 0.06325 µM) | relative viability (Pictilisib + Lapatinib; first compound 0.6325 µM) | relative viability (Pictilisib + Lapatinib; first compound 2 µM) | relative viability (Pictilisib + Olaparib; first compound 0.02 µM) | relative viability (Pictilisib + Olaparib; first compound 0.06325 µM) | relative viability (Pictilisib + Olaparib; first compound 0.6325 µM) | relative viability (Pictilisib + Olaparib; first compound 2 µM) | relative viability (Pictilisib + Tozasertib; first compound 0.02 µM) | relative viability (Pictilisib + Tozasertib; first compound 0.06325 µM) | relative viability (Pictilisib + Tozasertib; first compound 0.6325 µM) | relative viability (Pictilisib + Tozasertib; first compound 2 µM)
1 | ABC-1 | 0.145 | 0.148 | 0.167 | 0.163 | 0.629 | 0.728 | 0.721 | 0.701 | 1.08 | 1.27 | 1.04 | 0.631 | 0.781 | 0.721 | 0.79 | 0.721 | 0.187 | 0.135 | 0.158 | 0.168
2 | NCI-H460 | 0.362 | 0.691 | 0.601 | 0.665 | 0.355 | 0.307 | 0.294 | 0.222 | 1.08 | 1.02 | 0.548 | 0.118 | 0.425 | 0.436 | 0.395 | 0.173 | 0.411 | 0.401 | 0.28 | 0.0523
3 | EBC-1 | – | – | – | – | 0.459 | 0.314 | 0.176 | 0.164 | 0.237 | 0.208 | 0.237 | 0.204 | 0.681 | 0.741 | 0.564 | 0.243 | – | – | – | –
4 | ChaGo-K-1 | 0.236 | 0.268 | 0.2 | 0.228 | 0.914 | 0.981 | 0.692 | 0.401 | – | – | – | – | 0.44 | 0.381 | 0.5 | 0.332 | 0.227 | 0.21 | 0.161 | 0.17
5 | A549 | – | – | – | – | 0.496 | 0.494 | 0.394 | 0.304 | 0.93 | 0.906 | 0.595 | 0.606 | 0.441 | 0.355 | 0.283 | 0.211 | – | – | – | –
6 | NCI-H1563 | – | – | – | – | 0.625 | 0.665 | 0.633 | 0.626 | 1 | 0.948 | 0.696 | 0.564 | – | – | – | – | – | – | – | –
7 | NCI-H1703 | – | – | – | – | 0.239 | 0.232 | 0.236 | 0.254 | 0.939 | 1.33 | 0.405 | 0.247 | 0.471 | 0.378 | 0.214 | 0.122 | – | – | – | –
8 | NCI-H1299 | – | – | – | – | 0.832 | 0.728 | 0.744 | 0.769 | 1.02 | 1.01 | 1 | 1.01 | 0.996 | 1.01 | 1.03 | 0.858 | – | – | – | –
9 | NCI-H441 | 0.68 | 0.573 | 0.498 | 0.462 | 0.501 | 0.467 | 0.424 | 0.48 | – | – | – | – | 0.653 | 0.606 | 0.493 | 0.346 | 0.654 | 0.542 | 0.527 | 0.289
10 | NCI-H522 | 0.593 | 0.518 | 0.62 | 0.513 | – | – | – | – | – | – | – | – | 0.619 | 0.663 | 0.561 | 0.493 | 0.52 | 0.542 | 0.444 | 0.397
11 | NCI-H1648 | 0.508 | 0.689 | 0.657 | 0.504 | – | – | – | – | – | – | – | – | 0.701 | 0.561 | 0.355 | 0.264 | 0.377 | 0.36 | 0.455 | 0.246
12 | NCI-H1623 | 0.458 | 0.394 | 0.456 | 0.44 | – | – | – | – | – | – | – | – | – | – | – | – | 0.378 | 0.364 | 0.381 | 0.272
